Results on ten substances are retold here after patent publication US8178506B2, “Oligomeric compounds and compositions for use in modulation of small non-coding RNAs” (Regulus Therapeutics Inc., priority 2003, dated 2012).

Where “and” joins values, the source holds several entries; their conditions need not be identical. Identical values can stand only once. In the oligonucleotide strings, read from the 5' end, every base follows the letter of its sugar. An asterisk marks phosphorothioate; unmarked linkages are phosphodiester. Other units and linkages are bracketed, terminal groups are in braces. A string of capitals states the bases alone. e = 2'-O-(2-methoxyethyl) (MOE); [5mC] = 5-methylcytosine

Series [1] deals with differentiated adipocytes. Description: Hallmark genes and triglycerides in differentiated adipocytes. As to conditions: Table 28; differentiated adipocytes transfected day nine post-differentiation; 250 nM oligonucleotide. The class given is cell-based, human. The text has this:
The effect of the oligomeric compounds of the present invention targeting miRNAs on the expression of markers of cellular differentiation was examined in differentiated adipocytes.
As previously described, the HSL, aP2, Glut4, and PPARγ genes play important rolls in the uptake of glucose and the metabolism and utilization of fats. Also as previously described, an increase in triglyceride content is another well-established marker for adipocyte differentiation. Human white preadipocytes (Zen-Bio Inc., Research Triangle Park, N.C.) were grown in preadipocyte media (ZenBio Inc.). After the cells reached confluence (approximately three days), they were exposed to differentiation media (Zen-Bio, Inc.) containing a PPAR-γ agonist, IBMX, dexamethasone, and insulin for three days. Cells were then fed Adipocyte Medium (Zen-Bio, Inc.), which was replaced at 2 to 3 day intervals. One day before transfection, 96-well plates were seeded with 3000 cells/well. Cells were then transfected on day nine post-differentiation, according to standard published procedures with 250 nM oligonucleotide in LIPOFECTIN™ (Invitrogen Corporation, Carlsbad, Calif.) (Monia et al., J. Biol. Chem. 1993 268(19):14514-22). Oligomeric compounds were tested in triplicate on each 96-well plate, and the effect of TNF-α, known to inhibit adipocyte differentiation, was also measured in triplicate. Oligomeric compound treatments and transfectant-only negative controls may be measured up to six times per plate. On day twelve post-differentiation, cells were washed and lysed at room temperature, and the expression of the four hallmark genes, HSL, aP2, Glut4, and PPARγ, as well as triglyceride (TG) accumulation were measured in adipocytes transfected with the uniform 2′-MOE phosphorothioate (PS) previously described in Example 13 as well as the chimeric gapmer oligomeric compounds targeting the mir-143 miRNA and the mir-143 pri-miRNA described in Example 16. On day twelve post-differentiation, cells were lysed in a guanadinium-containing buffer and total RNA was harvested. The amount of total RNA in each sample was determined using a Ribogreen Assay (Molecular Probes, Eugene, Oreg.). Real-time PCR was performed on the total RNA using primer/probe sets for the adipocyte differentiation hallmark genes Glut4, HSL, aP2, and PPARγ. Triglyceride levels as well as mRNA levels for each of the four adipocyte differentiation hallmark genes are expressed relative to control levels (control=treatment with ISIS-29848 (SEQ ID NO: 737)).

The subject of series [2] is HeLa cells. The series can be described thus: Cell cycle assay in HeLa cells. The class given is cell-based, human. As to conditions: HeLa cells.
The mark [3] stands for this setting: 25 nM, 48 hours, percentage of cells in phase, average of replicates.
Where [4] appears, read: 50 nM, 48 hours, percentage of cells in phase, average of replicates.
Setting [5] is: 100 nM, 48 hours, percentage of cells in phase, average of replicates.
Setting [6] is: 150 nM oligomeric compound, 24 hours, relative to untreated control (UTC = 100).
[7] abbreviates: 150 nM oligomeric compound, 48 hours after treatment, relative to untreated control (UTC=100).
Where [8] appears, read: 150 nM, 48 hours, relative to untreated control.
Setting [9] is: 150 nM, 48 hours, percentage of cells in phase, average of replicates.

In series [1], “327954 (antisense eA*e[5mC]*eA*eA*eA*eG*eT*eT*e[5mC]*eT*eG*eT*eG*eA*eT*eG*e[5mC]*eA*e[5mC]*eT*eG*eA) [compound 327954]” showed a Glut4 of 0.61, an HSL of 1.35, a PPAR gamma of 1.46 and a TG of 1.46. The substance further came in with an aP2 in series [1] of 1.23.

Regarding “327880 (antisense eA*e[5mC]*eA*eA*eA*eT*eT*e[5mC]*eG*eG*eT*eT*e[5mC]*eT*eA*e[5mC]*eA*eG*eG*eG*eT*eA) [compound 327880]”, in series [1], the Glut4 amounted to 0.76, the HSL is 0.93, the PPAR gamma turned out to be 1.86 and the TG was found to be 1.12. For the same substance, the aP2 in series [1] was 1.14.

On to “338664 (antisense e[5mC]*eA*eG*eA*e[5mC]*eT*e[5mC]*e[5mC]*e[5mC]*eA*eA*e[5mC]*eT*eG*eA*e[5mC]*e[5mC]*eA*eG*eA) [compound 338664]”, for which, in series [1], the Glut4 is reported as 1.08, the HSL amounted to 1.01, the PPAR gamma worked out at 1.06 and the TG amounted to 1.72. This substance also registered an aP2 in series [1] of 0.77.

Consider “327913 (antisense eA*eA*e[5mC]*e[5mC]*eG*eA*eT*eT*eT*e[5mC]*eA*eA*eA*eT*eG*eG*eT*eG*e[5mC]*eT*eA*eG) [compound 327913]”, for which, in series [1], the Glut4 is recorded as 1.52, the HSL is given as 1.09, the PPAR gamma is on record as 1.29 and the TG is listed as 1.12. Also, in series [1], the aP2 worked out at 1.05.

For the substance “327902 (antisense eG*eG*e[5mC]*eT*eG*eT*e[5mC]*eA*eA*eT*eT*e[5mC]*eA*eT*eA*eG*eG*eT*e[5mC]*eA*eG) [compound 327902]”, the “% cells in cell cycle phase: G2/M” value in series [2] (25 nM, 48 hours) came out at 19%. In series [2] (setting [3]), the “% cells in cell cycle phase: G1” value worked out at 57%, the “% cells in cell cycle phase: S” value is reported as 23%, the “% cells in cell cycle phase: aneuploid” value is given as 13% and the “% cells in cell cycle phase: subG1” value was determined as 1.6%. In series [2] (50 nM, 48 hours), the “% cells in cell cycle phase: G2/M” value is reported as 20%. In addition, in series [2] (setting [4]), the “% cells in cell cycle phase: G1” value is reported as 51%, the “% cells in cell cycle phase: S” value was 30%, the “% cells in cell cycle phase: aneuploid” value is 14% and the “% cells in cell cycle phase: subG1” value was 2.4%. Moreover, the “% cells in cell cycle phase: G2/M” value in series [2] (100 nM, 48 hours) stood at 27%. Also, in series [2] (setting [5]), the “% cells in cell cycle phase: G1” value came to 43%, the “% cells in cell cycle phase: S” value came to 30%, the “% cells in cell cycle phase: aneuploid” value turned out to be 11% and the “% cells in cell cycle phase: subG1” value is 3.1%. Besides, in series [2] (setting [6]), the “% cells aneuploid” value was 66% and 98%; the “% cells in cell cycle phase G1” value was 57% and 44%; the “% cells in cell cycle phase G2/M” value is 176% and 163%; the “% cells in cell cycle phase S” value was 106% and 121%. Further, the “% cells in cell cycle phase subG1” value in series [2] (setting [6]) was 178% and 175%. Further, in series [2] (setting [7]), the “% cells in cell cycle phase: G1” value was 39% and 44%; the “% cells in cell cycle phase: G2/M” value was 208% and 205%; the “% cells in cell cycle phase: S” value was 171% and 166%; the “% cells in cell cycle phase: aneuploid” value is 81% and 87%. Moreover, in series [2] (150 nM, 48 hours), the “% cells in cell cycle phase: G2/M” value amounted to 28%. Also, in series [2] (setting [8]), the “% cells in cell cycle phase G1” value worked out at 108%, the “% cells in cell cycle phase G2/M” value amounted to 93%, the “% cells in cell cycle phase S” value was found to be 96% and the “% cells in cell cycle phase aneuploid” value came out at 162%. The “% cells in cell cycle phase subG1” value in series [2] (setting [8]) is recorded as 94%. Also, in series [2] (setting [9]), the “% cells in cell cycle phase: G1” value is listed as 36%, the “% cells in cell cycle phase: S” value is on record as 36%, the “% cells in cell cycle phase: aneuploid” value was determined as 12% and the “% cells in cell cycle phase: subG1” value is listed as 6.3%.

Take “327956 (antisense e[5mC]*eA*e[5mC]*eA*eG*eT*eT*eG*e[5mC]*e[5mC]*eA*eG*e[5mC]*eT*eG*eA*eG*eA*eT*eT*eA) [compound 327956]”: in series [2] (setting [6]), the “% cells aneuploid” value was found to be 61%, the “% cells in cell cycle phase G1” value stood at 124%, the “% cells in cell cycle phase G2/M” value is on record as 120% and the “% cells in cell cycle phase S” value is recorded as 68%. The “% cells in cell cycle phase subG1” value in series [2] (setting [6]) was 120%. In addition, in series [2] (setting [7]), the “% cells in cell cycle phase: G1” value is 91%, the “% cells in cell cycle phase: G2/M” value is listed as 121%, the “% cells in cell cycle phase: S” value is 106% and the “% cells in cell cycle phase: aneuploid” value came to 110%. Also, the “% cells in cell cycle phase: subG1” value in series [2] (setting [7]) was 184%.

“327910 (antisense eT*eG*eA*eT*eA*eG*e[5mC]*e[5mC]*e[5mC]*eT*eG*eT*eA*e[5mC]*eA*eA*eT*eG*e[5mC]*eT*eG*e[5mC]*eT) [compound 327910]”: in series [2] (setting [6]), the “% cells aneuploid” value was found to be 73%, the “% cells in cell cycle phase G1” value came to 154%, the “% cells in cell cycle phase G2/M” value amounted to 118% and the “% cells in cell cycle phase S” value came to 42%. The “% cells in cell cycle phase subG1” value in series [2] (setting [6]) is reported as 174%. For the same substance, in series [2] (setting [7]), the “% cells in cell cycle phase: G1” value amounted to 99%, the “% cells in cell cycle phase: G2/M” value came out at 111%, the “% cells in cell cycle phase: S” value turned out to be 91% and the “% cells in cell cycle phase: aneuploid” value is on record as 92%. Moreover, in series [2] (setting [7]), the “% cells in cell cycle phase: subG1” value stood at 53%.

For the substance “327907 (antisense eA*eG*e[5mC]*e[5mC]*eT*eA*eT*e[5mC]*e[5mC]*eT*eG*eG*eA*eT*eT*eA*e[5mC]*eT*eT*eG*eA*eA) [compound 327907]”, in series [2] (setting [6]), the “% cells aneuploid” value is listed as 75%, the “% cells in cell cycle phase G1” value came to 119%, the “% cells in cell cycle phase G2/M” value was found to be 111% and the “% cells in cell cycle phase S” value worked out at 77%. In addition, in series [2] (setting [6]), the “% cells in cell cycle phase subG1” value came to 224%. For the same substance, in series [2] (setting [7]), the “% cells in cell cycle phase: G1” value turned out to be 92%, the “% cells in cell cycle phase: G2/M” value worked out at 115%, the “% cells in cell cycle phase: S” value is given as 111% and the “% cells in cell cycle phase: aneuploid” value amounted to 94%. Also, in series [2] (setting [7]), the “% cells in cell cycle phase: subG1” value was 116%.

For “327906 (antisense eT*e[5mC]*eA*eT*eA*eG*e[5mC]*e[5mC]*e[5mC]*eT*eG*eT*eA*e[5mC]*eA*eA*eT*eG*e[5mC]*eT*eG*e[5mC]*eT) [compound 327906]”, in series [2] (setting [6]), the “% cells aneuploid” value is reported as 65%, the “% cells in cell cycle phase G1” value is reported as 153%, the “% cells in cell cycle phase G2/M” value worked out at 107% and the “% cells in cell cycle phase S” value came out at 47%. The “% cells in cell cycle phase subG1” value in series [2] (setting [6]) amounted to 228%. Moreover, in series [2] (setting [7]), the “% cells in cell cycle phase: G1” value is listed as 100%, the “% cells in cell cycle phase: G2/M” value turned out to be 103%, the “% cells in cell cycle phase: S” value worked out at 98% and the “% cells in cell cycle phase: aneuploid” value turned out to be 83%. In series [2] (setting [7]), the “% cells in cell cycle phase: subG1” value worked out at 57%.

As for “340350 (antisense TGCTCAATAAATACCCGTTGAA; all 2'-MOE, all phosphorothioate, methylation of C not given here) [compound 340350]”, in series [2] (setting [6]), the “% cells aneuploid” value stood at 94%, the “% cells in cell cycle phase G1” value amounted to 183%, the “% cells in cell cycle phase G2/M” value came to 104% and the “% cells in cell cycle phase S” value amounted to 54%. The “% cells in cell cycle phase subG1” value in series [2] (setting [6]) is 218%. In series [2] (setting [7]), the “% cells in cell cycle phase: G1” value worked out at 76%, the “% cells in cell cycle phase: G2/M” value is on record as 134%, the “% cells in cell cycle phase: S” value is on record as 126% and the “% cells in cell cycle phase: aneuploid” value amounted to 125%. Also, the “% cells in cell cycle phase: subG1” value in series [2] (setting [7]) worked out at 1144%. Moreover, in series [2] (setting [8]), the “% cells in cell cycle phase G1” value was 101%, the “% cells in cell cycle phase G2/M” value was 112%, the “% cells in cell cycle phase S” value is 94% and the “% cells in cell cycle phase aneuploid” value was 177%. Also, the “% cells in cell cycle phase subG1” value in series [2] (setting [8]) is reported as 132%.
